Results taken from ChEMBL document CHEMBL1128555, “Derivatives of 5-[[1-(4'-carboxybenzyl)imidazolyl]methylidene]hydantoins as orally active angiotensin II receptor antagonists” (J Med Chem, 1995).

Experiments:
[1] = molecular target: T1, Angiotensin II receptor (AT-1) type-1 (Rattus norvegicus, UniProt P29089+P25095); assay: Binding affinity expressed as IC50 to the Angiotensin II receptor, type 1, from rat liver membrane
T1 sequence (P29089 whole entry): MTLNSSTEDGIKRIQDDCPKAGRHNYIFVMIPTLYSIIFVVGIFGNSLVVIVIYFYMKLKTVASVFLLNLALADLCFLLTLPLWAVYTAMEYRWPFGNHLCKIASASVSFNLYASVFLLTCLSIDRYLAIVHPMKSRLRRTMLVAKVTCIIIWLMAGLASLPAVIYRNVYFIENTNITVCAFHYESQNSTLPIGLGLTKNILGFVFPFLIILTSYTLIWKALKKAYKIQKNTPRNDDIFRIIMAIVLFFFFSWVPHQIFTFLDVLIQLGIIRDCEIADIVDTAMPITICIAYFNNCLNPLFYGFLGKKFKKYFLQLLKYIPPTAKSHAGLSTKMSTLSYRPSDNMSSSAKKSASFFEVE
T1 sequence (P25095 whole entry): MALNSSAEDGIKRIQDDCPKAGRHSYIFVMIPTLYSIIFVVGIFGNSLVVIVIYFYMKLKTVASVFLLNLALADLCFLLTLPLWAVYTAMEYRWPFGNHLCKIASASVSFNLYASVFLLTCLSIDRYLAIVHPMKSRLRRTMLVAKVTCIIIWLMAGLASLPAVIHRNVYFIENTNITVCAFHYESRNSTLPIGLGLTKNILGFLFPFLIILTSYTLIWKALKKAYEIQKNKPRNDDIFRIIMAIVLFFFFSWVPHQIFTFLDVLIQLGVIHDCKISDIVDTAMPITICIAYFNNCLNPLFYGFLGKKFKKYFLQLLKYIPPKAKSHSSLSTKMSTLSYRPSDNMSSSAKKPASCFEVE

[2] = molecular target: Angiotensin II receptor (AT-1) type-1 (Rattus norvegicus) (UniProt P29089+P25095); assay: Antihypertensive activity in renal hypertensive rats (RHR) at 30 mg/Kg dose after oral administration; format: functional, organism-based
[3] = molecular target: Angiotensin II receptor type-1 (Oryctolagus cuniculus) (UniProt P34976); assay: Inhibition of angiotensin II induced contraction in rabbit aortic ring, activity is expressed as IC50
Sequence of Angiotensin II receptor type-1 (Oryctolagus cuniculus) (P34976 whole entry, looked up): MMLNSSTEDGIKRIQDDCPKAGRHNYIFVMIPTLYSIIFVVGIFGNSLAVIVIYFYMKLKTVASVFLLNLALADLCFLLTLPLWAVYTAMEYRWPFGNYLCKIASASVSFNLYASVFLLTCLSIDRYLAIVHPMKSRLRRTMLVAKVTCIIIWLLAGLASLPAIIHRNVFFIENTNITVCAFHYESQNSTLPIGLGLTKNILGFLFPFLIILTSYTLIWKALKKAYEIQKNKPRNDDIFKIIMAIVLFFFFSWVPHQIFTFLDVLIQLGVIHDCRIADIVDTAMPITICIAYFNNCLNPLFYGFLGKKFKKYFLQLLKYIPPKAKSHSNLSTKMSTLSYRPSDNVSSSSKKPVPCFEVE

| IC50 [1] [nM] | IC50 [3] [nM] | Compound | Maximum blood pressure change [2] [%] |
| --- | --- | --- | --- |
| 159 |  | CCCCc1ncc(/C=C2/C(=O)N(CCCC)C(=O)N2Cc2ccc(C(F)(F)F)cc2)n1Cc1ccc(C(=O)OC)cc1 |  |
| 6.4 |  | CCCCc1ncc(/C=C2/C(=O)N(CCCC)C(=O)N2CCCC(F)(F)F)n1Cc1ccc(C(=O)OC)cc1 |  |
| 0.5 |  | CCCCc1ncc(/C=C2\C(=O)N(CCCC)C(=O)N2CCCC)n1Cc1ccc(C(=O)O)cc1 |  |
| 47.9 |  | CCCCc1ncc(/C=C2/C(=O)N(CCCO)C(=O)N2Cc2csc(C)n2)n1Cc1ccc(C(=O)OC)cc1 |  |
| 11.1 |  | CCCCc1ncc(/C=C2/C(=O)N(CCCC)C(=O)N2C=C(C)C)n1Cc1ccc(C(=O)OC)cc1 |  |
| 117 |  | CCCCc1ncc(/C=C2/C(=O)N(CCCC)C(=O)N2Cc2cccc(Cl)c2)n1Cc1ccc(C(=O)OC)cc1 |  |
| 198 |  | CCCCc1ncc(/C=C2/C(=O)N(CCCC)C(=O)N2Cc2c(C)noc2C)n1Cc1ccc(C(=O)OC)cc1 |  |
| 17.8 |  | CCCCc1ncc(/C=C2/C(=O)N(CCCC)C(=O)N2Cc2ccc(Br)s2)n1Cc1ccc(C(=O)OC)cc1 |  |
| 9.8 |  | CCCCc1ncc(/C=C2/C(=O)N(CCCC)C(=O)N2Cc2ccc(OC)cc2)n1Cc1ccc(C(=O)OC)cc1 |  |
| 1.7 |  | CCCCc1ncc(/C=C2\C(=O)N(CCCC)C(=O)N2Cc2csc(C)n2)n1Cc1ccc(C(=O)O)cc1 |  |
| 21.9 |  | CCCCc1ncc(/C=C2/C(=O)N(CCCC)C(=O)N2Cc2cc(Br)cs2)n1Cc1ccc(C(=O)OC)cc1 |  |
| 6.1 |  | CCCCCN1C(=O)N(CCCC)C(=O)/C1=C/c1cnc(CCCC)n1Cc1ccc(C(=O)OC)cc1 |  |
| 245 |  | CCCCc1ncc(/C=C2/C(=O)N(CCCC)C(=O)N2Cc2c[nH]c(C)n2)n1Cc1ccc(C(=O)OC)cc1 |  |
| 4.8 |  | CCCCc1ncc(/C=C2/C(=O)N(CCCC)C(=O)N2Cc2ccsc2)n1Cc1ccc(C(=O)OC)cc1 | -36 |
| 0.5 |  | CCCCc1ncc(/C=C2\C(=O)N(CCCC)C(=O)N2Cc2csc(N)n2)n1Cc1ccc(C(=O)O)cc1 |  |
| 11.1 |  | CCCCc1ncc(/C=C2/C(=O)N(CCCC)C(=O)N2Cc2ccc(C#N)cc2)n1Cc1ccc(C(=O)OC)cc1 |  |
| 260 |  | CCCCc1ncc(/C=C2/C(=O)N(CCCC)C(=O)N2Cc2cccc[n+]2[O-])n1Cc1ccc(C(=O)OC)cc1 |  |
| 54.5 |  | CCCCc1ncc(/C=C2/C(=O)N(CCCC)C(=O)N2Cc2c[nH]cn2)n1Cc1ccc(C(=O)OC)cc1 |  |
| 31 |  | CCCCc1ncc(/C=C2/C(=O)N(CCCC)C(=O)N2CCc2ccccc2)n1Cc1ccc(C(=O)OC)cc1 |  |
| 18.5 |  | CCCCc1ncc(/C=C2/C(=O)N(CCCC)C(=O)N2Cc2cccc(C)c2)n1Cc1ccc(C(=O)OC)cc1 |  |
| 2.5 |  | CCCCc1ncc(/C=C2\C(=O)NC(=O)N2CCCC)n1Cc1ccc(-c2nn[nH]n2)cc1 |  |
| 9.9 |  | CCCCc1ncc(/C=C2\C(=O)NC(=O)N2CCCC)n1Cc1ccc(-c2ccccc2C(=O)OC)cc1 |  |
| 25.4 |  | CCCCc1ncc(/C=C2/C(=O)N(CCCC)C(=O)N2Cc2csc(Br)c2)n1Cc1ccc(C(=O)OC)cc1 |  |
| 8.5 |  | CCCCc1ncc(/C=C2/C(=O)N(CCCC)C(=O)N2Cc2cc(C)on2)n1Cc1ccc(C(=O)OC)cc1 |  |
| 3.4 | > 100 | CCCCc1ncc(/C=C2\C(=O)NC(=O)N2Cc2ccccc2)n1Cc1ccc(C(=O)O)cc1 |  |
| 2.7 |  | CCCCc1ncc(/C=C2\C(=O)NC(=O)N2CCCC)n1Cc1ccc(-c2ccccc2-c2nn[nH]n2)cc1 |  |
| 14.3 |  | CCCCc1ncc(/C=C2/C(=O)N(CCCC)C(=O)N2Cc2ccc(C(=O)OC)cc2)n1Cc1ccc(C(=O)OC)cc1 |  |
| 14.5 |  | CCCCc1ncc(/C=C2/C(=O)N(CCCC)C(=O)N2CCc2cccs2)n1Cc1ccc(C(=O)OC)cc1 |  |

| IC50 [1] [nM] | IC50 [3] [nM] | Compound | Maximum blood pressure change [2] [%] |
| --- | --- | --- | --- |
| 3.3 |  | CCCCc1ncc(/C=C2/C(=O)N(CCCC)C(=O)N2CC2CCCCC2)n1Cc1ccc(C(=O)OC)cc1 |  |
| 0.6 |  | CCCCc1ncc(/C=C2\C(=O)N(CCCC)C(=O)N2Cc2cccs2)n1Cc1ccc(C(=O)O)cc1 |  |
| 4.9 | 74 | CCCCc1ncc(/C=C2\C(=O)NC(=O)N2CCC(C)C)n1Cc1ccc(C(=O)O)cc1 |  |
| 40.2 |  | CCCCCCN1C(=O)N(CCCC)C(=O)/C1=C/c1cnc(CCCC)n1Cc1ccc(C(=O)OC)cc1 |  |
| 29.6 |  | CCCCc1ncc(/C=C2/C(=O)N(CCCC)C(=O)N2CCCC)n1Cc1ccc(-c2ccccc2C(=O)OC)cc1 |  |
| 6.6 | 32 | CCCCc1ncc(/C=C2/C(=O)NC(=O)N2CCC(C)C)n1Cc1ccc(C(=O)O)cc1 |  |
| 12.4 |  | CCCCc1ncc(/C=C2/C(=O)N(CCCC)C(=O)N2Cc2ccccc2)n1Cc1ccc(C(=O)OC)cc1 |  |
| 16.6 |  | CCCCc1ncc(/C=C2/C(=O)N(C)C(=O)N2Cc2csc(C)n2)n1Cc1ccc(C(=O)OC)cc1 |  |
| 34.6 |  | CCCCc1ncc(/C=C2/C(=O)N(CCCC)C(=O)N2Cc2ccc(C)cc2)n1Cc1ccc(C(=O)OC)cc1 |  |
| 8 |  | CCCCc1ncc(/C=C2/C(=O)N(CCCC)C(=O)N2Cc2csc(C)n2)n1Cc1ccc(C2(C(=O)OC)CCCC2)cc1 |  |
| 4.9 |  | CCCCc1ncc(/C=C2/C(=O)N(CCCC)C(=O)N2Cc2ccc(O)c(O)c2)n1Cc1ccc(C(=O)OC)cc1 |  |
| 11.1 |  | CCCCc1ncc(/C=C2/C(=O)N(CC)C(=O)N2Cc2csc(C)n2)n1Cc1ccc(C(=O)OC)cc1 |  |
| 4 | 35 | CCCCc1ncc(/C=C2/C(=O)NC(=O)N2Cc2ccccc2)n1Cc1ccc(C(=O)O)cc1 |  |
| 9 |  | CCCCc1ncc(/C=C2/C(=O)N(CCC)C(=O)N2Cc2csc(C)n2)n1Cc1ccc(C(=O)OC)cc1 |  |
| 47.8 |  | CCCCc1ncc(/C=C2/C(=O)N(COC)C(=O)N2Cc2csc(C)n2)n1Cc1ccc(C(=O)OC)cc1 |  |
| 104 |  | CCCCc1ncc(/C=C2/C(=O)N(CCCC)C(=O)N2Cc2ccc3ccccc3c2)n1Cc1ccc(C(=O)OC)cc1 |  |
| 23.9 |  | CCCCc1ncc(/C=C2/C(=O)N(CCCC)C(=O)N2Cc2sccc2C)n1Cc1ccc(C(=O)OC)cc1 |  |
| 9.6 |  | CCCCc1ncc(/C=C2/C(=O)N(CCSC)C(=O)N2Cc2csc(C)n2)n1Cc1ccc(C(=O)OC)cc1 |  |
| 15.9 |  | CCCCc1ncc(/C=C2/C(=O)NC(=O)N2CCCC)n1Cc1ccc(-c2ccccc2C(=O)OC)cc1 |  |
| 16.9 |  | CCCCc1ncc(/C=C2/C(=O)N(CCCC)C(=O)N2Cc2ccc([N+](=O)[O-])cc2)n1Cc1ccc(C(=O)OC)cc1 |  |
| 4.2 |  | CCCCc1ncc(/C=C2\C(=O)NC(=O)N2CCCC)n1Cc1ccc(NS(=O)(=O)C(F)(F)F)cc1 |  |
| 4.2 |  | CCCCc1ncc(/C=C2/C(=O)N(CCCC)C(=O)N2Cc2ccc(C(=O)OC)s2)n1Cc1ccc(C(=O)OC)cc1 |  |
| 35.7 |  | CCCCc1ncc(/C=C2/C(=O)N(CO)C(=O)N2Cc2csc(C)n2)n1Cc1ccc(C(=O)OC)cc1 |  |
| 884 |  | CCCCc1ncc(/C=C2/C(=O)N(CCCC)C(=O)N2C(c2ccccc2)c2ccccc2)n1Cc1ccc(C(=O)OC)cc1 |  |
| 70 |  | CCCCc1ncc(/C=C2/C(=O)N(CCCC(F)(F)F)C(=O)N2Cc2csc(C)n2)n1Cc1ccc(C(=O)OC)cc1 |  |
| 41.7 |  | CCCCc1ncc(/C=C2/C(=O)N(CCCC)C(=O)N2Cc2nn[nH]n2)n1Cc1ccc(C(=O)OC)cc1 |  |
| 14.6 |  | CCCCc1ncc(/C=C2/C(=O)N(CCCC)C(=O)N2CCc2ccsc2)n1Cc1ccc(C(=O)OC)cc1 |  |
